The structures appear in SMILES notation. Where only a bound is given, the exact number is not on record here.

In the first experiment the test system is genotype A, "Long" strain RSV. The experiment is described as follows: RSV-A assay (CPE protection in Hep-2 cells, ATPlite readout). The conditions noted are these: human respiratory syncytial virus, RSV-A Long strain, MOI 0.1, CPE protection, read-out: Human RSV-A (“Long”) EC50. The format is cell-based, Human respiratory syncytial virus (HRSV). In short, it runs like this:
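Compound effect on RSV-induced CPE: Hep-2 monolayers, MOI 0.1, duplicate 2-fold titrations, 5-day culture in 10% FBS DMEM. Readout is ATP-based luminescence, normalised to virus-only and no-virus controls, giving EC50.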
A general note: Cellular ATP, detected with luciferase, serves as a proxy for viable cell number.
Take `C[C@]1(C(N)=O)COc2c1cc([C@@](O)(CNC(=O)c1cc(OC(F)F)c3nn(C4CC4)cc3c1)C1CC1)nc2-c1cc(Cl)c(F)cc1F` [Example 1212]: the EC50 is less than 200 nM.

In the case of `COc1cc(C(=O)NC[C@](O)(c2cc3c(c(-c4ccc5c(c4)OC(F)(F)O5)n2)OC[C@]3(C)C(N)=O)C2CC2)cc2cc(C(F)F)nnc12` [Example 1210], the EC50 is less than 200 nM.

Turning to `COc1cc(C(=O)NC[C@](O)(c2cc3c(c(-c4ccc(F)cc4F)n2)OC[C@]3(C)C(N)=O)C2CC2)cc2cn(C3CC3)nc12` [Example 1277], the EC50 was less than 200 nM.

On to `COc1cc(C(=O)NC[C@](O)(c2cc3c(c(-c4ccc5c(c4)OC(F)(F)O5)n2)OC[C@]3(C)C(N)=O)C(F)(F)F)cc2cc(C3CC3)nnc12` [Example 1111], for which the EC50 is less than 200 nM.

For the compound `COc1cc(C(=O)NC[C@](O)(c2cc3c(c(-c4cc(Cl)ccc4Cl)n2)OC[C@]3(C)C(N)=O)C2CC2)cc2cn(C3CC3)nc12` [Example 1280], the EC50 was less than 200 nM.

In the case of `COc1cc(C(=O)NC[C@](O)(c2cc3c(c(-c4ccc(F)cc4)n2)OC[C@]3(C)C(=O)NC2(C)CC2)C(F)(F)F)cc2cn(C3CC3)nc12` [Example 1176], the EC50 was less than 200 nM.

`COc1cc(C(=O)NC[C@](O)(c2nc(-c3ccc(F)c(Cl)c3F)c3c(c2Cl)[C@@](C)(C(N)=O)CO3)C2CC2)cc2cn(C3CC3)nc12` [Example 1217]: the EC50 is more than 200 nM.

Consider `Cc1cc2cc(C(=O)NC[C@](O)(c3cc4c(c(-c5ccc(F)c(Cl)c5F)n3)OC[C@]4(C)C(N)=O)C3CC3)cc(OC3CC3)c2nc1Cl` [Example 1077], for which the EC50 was less than 200 nM.

With `COc1cc(C(=O)NC[C@](O)(c2cc3c(c(-c4c(F)ccc(F)c4Cl)n2)OC[C@]3(C)C(N)=O)C(F)(F)F)cc2cn(C3CC3)nc12` [Example 1244], the EC50 is less than 200 nM.

As for `COc1cc(C(=O)NC[C@](O)(c2cc3c(c(C4=CCN(C(=O)OC(C)(C)C)CC4)n2)OC[C@]3(C)C(N)=O)C(F)(F)F)cc2cn(C3CC3)nc12` [Example 1241], the EC50 was more than 200 nM.

Regarding `COc1cc(C(=O)NC[C@](O)(c2cc3c(c(-c4cc(Cl)c(F)cc4F)n2)OC[C@]3(C)C(N)=O)C2CC2)cc2sc(C3CC3)nc12` [Example 1132], the EC50 was less than 200 nM.

Consider `C[C@]1(C(N)=O)COc2c1cc([C@@](O)(CNC(=O)c1cc(OC3CC3)c3nn(C(F)F)cc3c1)C1CC1)nc2-c1ccc(F)c(F)c1Cl` [Example 1197], for which the EC50 is less than 200 nM.

With `COc1cc(C(=O)NC[C@@](O)(c2cc3c(c(C4=CCN(C(=O)OC(C)(C)C)CC4)n2)OC[C@]3(C)C(N)=O)C(F)(F)F)cc2cn(C3CC3)nc12` [Example 1239], the EC50 is more than 200 nM.

Staying with this experiment, now noted: human respiratory syncytial virus, genotype A “Long” strain RSV, MOI 0.1, CPE protection, read-out: Human RSV-A (“Long”).
In the case of `C[C@]1(C(N)=O)COc2c1cc([C@@](O)(CNC(=O)c1cnn(-c3ccccc3F)c1)C(F)(F)F)nc2-c1ccc(F)cc1` [Example 454], the EC50 is less than 200 nM.

On to `COc1cc(C(=O)NC[C@](O)(c2cc3c(c(-c4ccc(F)cc4)n2)OC[C@]3(C)C(N)=O)C(F)(F)F)cc2c1NC(=O)C2` [Example 225], for which the EC50 was less than 200 nM.

Take `C[C@]1(C(N)=O)COc2c1cc([C@@](O)(CNC(=O)c1cc(F)c3[nH]ccc3c1)C(F)(F)F)nc2-c1ccc(F)cc1` [Example 197]: the EC50 was less than 200 nM.

As for `C[C@]1(C(N)=O)COc2c1cc([C@@](O)(CNC(=O)c1nc3cc(F)ccc3[nH]1)C(F)(F)F)nc2-c1ccc(F)cc1` [Example 405], the EC50 was more than 200 nM.

Consider `Cn1cc(C(=O)NC[C@](O)(c2cc3c(c(-c4ccc(F)cc4)n2)OC[C@]3(C)C(N)=O)C(F)(F)F)nn1` [Example 337], for which the EC50 is more than 200 nM.

Turning to `Cn1nc(F)c2cc(C(=O)NC[C@](O)(c3cc4c(c(-c5ccc(F)cc5)n3)OC[C@]4(C)C(N)=O)C(F)(F)F)ccc21` [Example 31], the EC50 was more than 200 nM.

Consider `Cc1cc(C(=O)NC[C@](O)(c2cc3c(c(-c4ccc(F)cc4)n2)OC[C@]3(C)C(N)=O)C(F)(F)F)cc2nc[nH]c12` [Example 194], for which the EC50 was less than 200 nM.

Consider `Cc1cc[nH]c1C(=O)NC[C@](O)(c1cc2c(c(-c3ccc(F)cc3)n1)OC[C@]2(C)C(N)=O)C(F)(F)F` [Example 362], for which the EC50 is more than 200 nM.

Consider `C[C@]1(C(N)=O)COc2c1cc([C@@](O)(CNC(=O)c1ccc3[nH]nnc3c1)C(F)(F)F)nc2-c1ccc(F)cc1` [Example 107], for which the EC50 was more than 200 nM.

On to `C[C@]1(C(N)=O)COc2c1cc([C@@](O)(CNC(=O)c1ccnc3ccccc13)C(F)(F)F)nc2-c1ccc(F)cc1` [Example 399], for which the EC50 was more than 200 nM.

With `C[C@]1(C(N)=O)COc2c1cc([C@@](O)(CNC(=O)c1ccc3nc(NC(=O)[C@@H](N)CO)sc3c1)C(F)(F)F)nc2-c1ccc(F)cc1` [Example 187], the EC50 is less than 200 nM.

In the case of `CC[C@]1(C(N)=O)COc2c1cc([C@@](O)(CNC(=O)c1cc(OC)c3nc(C)c(Cl)cc3c1)C(F)(F)F)nc2-c1ccc(F)cc1` [Example 238], the EC50 was more than 200 nM.

For the compound `C[C@]1(C(N)=O)COc2c1cc([C@@](O)(CNC(=O)c1ccc3sc(N)nc3c1)C(F)(F)F)nc2-c1ccc(F)cc1` [Example 190], the EC50 is more than 200 nM.

In the case of `C[C@]1(C(N)=O)COc2c1cc([C@@](O)(CNC(=O)c1sc3ccccc3c1Cl)C(F)(F)F)nc2-c1ccc(F)cc1` [Example 419], the EC50 was more than 200 nM.

Turning to `C[C@]1(C(N)=O)COc2c1cc([C@@](O)(CNC(=O)c1c[nH]c3c(Cl)cccc13)C(F)(F)F)nc2-c1ccc(F)cc1` [Example 350], the EC50 was more than 200 nM.

As for `CC[C@]1(C(N)=O)COc2c1cc([C@@](O)(CNC(=O)c1ccc(OC3CC3)c(OC)c1)C(F)(F)F)nc2-c1ccc(F)cc1` [Example 241], the EC50 was less than 200 nM.

Consider `C[C@]1(C(N)=O)COc2c1cc([C@@](O)(CNC(=O)c1nccs1)C(F)(F)F)nc2-c1ccc(F)cc1` [Example 396], for which the EC50 is more than 200 nM.

Take `Cc1cc2cc(C(=O)NC[C@](O)(c3cc4c(c(-c5ccc(F)cc5)n3)OC[C@]4(C)C(N)=O)C(F)(F)F)ccc2[nH]1` [Example 171]: the EC50 was less than 200 nM.

As for `CN[C@H](C)COc1ccc(C(=O)NC[C@](O)(c2cc3c(c(-c4ccc(F)cc4)n2)OC[C@]3(C)C(N)=O)C(F)(F)F)cc1OC` [Example 151], the EC50 was more than 200 nM.

For `C[C@]1(C(N)=O)COc2c1cc([C@@](O)(CNC(=O)c1cc3cnccc3[nH]1)C(F)(F)F)nc2-c1ccc(F)cc1` [Example 370], the EC50 is less than 200 nM.

On to `CC[C@@]1(C(N)=O)COc2c1cc([C@@](O)(CNC(=O)c1cc(OC)c3nn(C(F)F)cc3c1)C(F)(F)F)nc2-c1ccc(F)cc1` [Example 243], for which the EC50 is more than 200 nM.

For `COc1ccc2nc(C(=O)NC[C@](O)(c3cc4c(c(-c5ccc(F)cc5)n3)OC[C@]4(C)C(N)=O)C(F)(F)F)sc2c1` [Example 394], the EC50 is more than 200 nM.

Consider `C[C@]1(C(N)=O)COc2c1cc([C@@](O)(CNC(=O)c1cccc3nc(N)sc13)C(F)(F)F)nc2-c1ccc(F)cc1` [Example 490], for which the EC50 is less than 200 nM.

On to `C[C@]1(C(N)=O)COc2c1cc([C@@](O)(CNC(=O)c1cn(-c3ccccc3)nc1-c1ccccc1)C(F)(F)F)nc2-c1ccc(F)cc1` [Example 443], for which the EC50 was more than 200 nM.

On to `Cc1ccc2cc(C(=O)NC[C@](O)(c3cc4c(c(-c5ccc(F)cc5)n3)OC[C@]4(C)C(N)=O)C(F)(F)F)[nH]c2c1` [Example 385], for which the EC50 was more than 200 nM.

The values are drawn from patent US12612412B2, “Antiviral heterocyclic compounds” (Enanta Pharmaceuticals, Inc., priority 2021, dated 2026).
